Consider one molecule from patent US20250011738A1, “HEAT TOLERANT ALKALINE PHOSPHATASE” (BiomEdit, LLC, priority 2021, published 2025).

As a reminder, the Km is the concentration of substrate that gives half-maximal velocity.

For this test, the target named is T1, Paenibacillus lentus alkaline phosphatase AP1 (designated "Native"), serine (S) replacement for an aspartic acid (D), SEQ ID NO: 4 (Paenibacillus lentus, UniProt A0A3Q8S6G4, D102S).
T1 sequence (A0A3Q8S6G4 34-572 D102S): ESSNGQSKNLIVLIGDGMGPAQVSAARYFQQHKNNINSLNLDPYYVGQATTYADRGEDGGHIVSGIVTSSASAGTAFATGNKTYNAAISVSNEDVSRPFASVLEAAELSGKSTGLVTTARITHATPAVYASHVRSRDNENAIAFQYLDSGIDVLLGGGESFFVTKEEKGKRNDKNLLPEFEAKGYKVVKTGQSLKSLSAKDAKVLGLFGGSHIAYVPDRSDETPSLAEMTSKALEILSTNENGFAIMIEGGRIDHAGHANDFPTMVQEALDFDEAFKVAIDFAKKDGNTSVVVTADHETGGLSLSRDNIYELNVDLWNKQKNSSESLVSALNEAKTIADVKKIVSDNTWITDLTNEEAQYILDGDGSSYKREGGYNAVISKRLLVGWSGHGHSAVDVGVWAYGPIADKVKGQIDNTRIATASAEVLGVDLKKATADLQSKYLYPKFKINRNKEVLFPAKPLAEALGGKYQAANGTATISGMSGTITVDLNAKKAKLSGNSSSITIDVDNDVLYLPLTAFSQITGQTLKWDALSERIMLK
Put plainly: Phosphatase kinetics with p-NPP, AP1 ("Native"). The test is classed as biochemical. The protocol:
FIG. 7 presents effect of pH on (A)Vmax (IU/mg) and (B) KM (μM) activity of AP1 (designated “Native”) and APHT (designated “HT”). Assays were performed at 40° C. with p-NPP as substrate in the concentration range 0-5 mM. The enzyme concentration was 2.5 μg/mL for the pH 8 and 0.4 mg/mL for pH 9-13).
FIG. 8 presents effect of pH on (A)Vmax (IU/mg) and (B) KM (μM) activity of AP1 (designated “Native”) and APHT (designated “HT”). Assays were performed at 50° C. with p-NPP as substrate in the concentration range 0-5 mM. The enzyme concentration was 2.5 μg/mL for the pH 8 and 0.4 mg/mL for pH 9-13).
Enzymes, including lysozyme and alkaline phosphatase, are recognized as disruptors of bacterial debris and inflammation. These enzymes reduce inflammation, including by lysing the peptidoglycans and LPS of bacteria, thus deactivating them and thereby bypassing the inflammatory response. An alkaline phosphatase was initially identified and modified from Paenibacillus lentus bacteria and expressed for application and use as a farm animal feed additive. This modified alkaline phosphatase is characterized by having a serine (S) replacement for an aspartic acid (D) in the native bacterial alkaline phosphatase protein sequence and is designated herein as AP1. […] The AP1 alkaline phosphate is described including in U.S. Pat. No. 9,326,535 issued May 3, 2016. The sequence of AP1 is as follows (the serine is in bold and underlined) (SEQ ID NO:4):
• 1 M DEA Buffer pH 10. Dissolve 10.5 g of diethanolamine in to 100 ml of water. The pH adjust with 1 M hydrochloric acid or 1 M NaOH. Filter sterilize and store at 4 C. • 0.5 M Tris Base Buffer pH 10 and 8. Dissolve 6.06 g of Tris in to 100 ml of water. The pH adjust with 1 M hydrochloric acid or 1 M NaOH. Filter sterilize and store at 4 C. • 0.1 M Borate Buffer pH 11 and 12. Dissolve 0.62 g Boric acid, 0.44 g NaCl and Sodium tetraborate 0.95 g in 100 ml H2O. The pH adjust with 1 M hydrochloric acid or 1 M NaOH. Filter sterilize and store at 4 C. • 1 M KCl/NaOH Buffer pH 13. Dissolve 7.4 g KCl in 100 ml water. The pH adjust with 1 M NaOH. Filter sterilize and store at 4 C. • 1 M MgCl2, 23.8 g MgCl2 anhydrous in […] water. Filter sterilize and store at 4 C 3. Activity Assay: p-NPP Substrate
Reactions were carried out at 40° C. using 50 mM Tris buffer pH 7 with 50 mM MgCl2 and at 50° C. using 50 mM DEA buffer pH 10 with 50 mM MgCl2. Enzyme was thawed, aliquoted in 500 μL vials and freeze at −80° C. For 100 μL volume of reaction, components were mixed in 96-well microplate (Fisher 12565501) following the order in TABLE 1. Every reaction condition was done by triplicated at least.
After the adding enzyme, the absorption of product was followed at 405 nm over 5 min in a M5 plate reader with intervals of 20 s. Initial rate was determined for each curve and product formed calculated using the extinction coefficient of 18.5 mM^−1·cm^−1 and a calculated pathlength of 0.5 cm. Initial rates where fitted to Michalis Menten model built in the Kaleidagraph software.
pH effect on enzyme activity was tested at 40 and 50° C. in the corresponding buffer with 50 mM MgCl2 using p-NPP as substrate in the concentration range 0-5.0 mM. The reaction started with the addition of enzyme (2.5 μg/mL for pH 8 and 0.4 μg/mL for pH 9-13) and the absorption at 405 nm was followed for 5 min. Every reaction condition was done by triplicated at least. The initial rates where fitted to Michalis Menten model built in the software Kaleidagraph.

For `O=[N+]([O-])c1ccc(OP(=O)(O)O)cc1` [p-NPP, p-nitrophenylphosphate], the Km (40° C., Borate pH 11) worked out at 3340 µM; the Michaelis-Menten constant (Km) (40° C., DEA pH 10) is 776 µM; the Km (40° C., Tris pH 8) came out at 65 µM; the Michaelis constant (Km) (40° C., Tris pH 9) turned out to be 315 µM; the Km (50° C., Borate pH 11) is 573 µM; the Km (50° C., Borate pH 12) came out at 293 µM. For the same molecule, the Km is 64 µM (50° C., KCl/NaOH (pH printed 204; Table 2: 13.0)); 383 µM (50° C., Tris pH 8); 1440 µM (50° C., Tris pH 9).
